Tested on: obese-diabetic viable yellow (AvY) mice
Experiment: Demonstration of hypoglycemic efficacy: blood glucose after 14 days of compound admixed in diet
Format: in vivo
Settings: blood glucose at day 14 as percent of initial (day 0) value, male AvY mice
Protocol: Male obese-diabetic viable yellow (AvY) mice were divided into two groups of 6 each. One group was fed repelletized purina 5008 Chow and the second group was fed repelletized Purina 5008 Chow, admixed with varying doses of the candidate compound. Blood samples were taken before the experiment was initiated and 7 and 14 days after initiation. Body weight and food consumption were monitored. The blood glucose level after 7 or 14 days of treatment was measured and recorded as a percent of the initial value, compared to the untreated control (first) group. The results are presented in the table 1 below; and include the dose of the candidate compound as a weight percent of the amount incorporated into the diet. Also in the table is a representative value for a positive control (a known hypoglycemic agent as disclosed by T. Sohda, K. Mizuno, Y. Momose, H. Ikeda, T. Fujita, and K. Meguro, J. Med. Chem., 1992, 35, 2617) administered in the same way as a candidate compound of the present invention.
BG means blood glucose level; BG0 means blood glucose level at day zero and BG14 means blood glucose level at day 14 accordingly. Takeda “Compound 17” is disclosed by T. Sohda, K. Mizuno, Y. Momose, H. Ikeda, T. Fujita, and K. Meguro, J. Med. Chem., 1992, 35, 2617.

[1] = dose .03 weight percent in diet (Purina 5008 Chow)

Row | Compound | % BG14 (BGO = 100) [1] | also measured
1 | 3-(4-(2-Phenyl-4-oxazolyl)ethoxy)phenyl-4-methylsulfonyl-1H-1,2-pyrazoline [Example 3] | – | % BG14 (BGO = 100) (dose .01 weight percent in diet (Purina 5008 Chow)): 72%
2 | O=c1[nH][nH]cc1S(=O)(=O)c1ccc(OCCc2coc(-c3ccccc3)n2)cc1 [Example 1, 4-(4-[2-(2-Phenyl-4-oxazolyl)ethoxy]phenylsulfonyl)-1H,2H-prazolin-3-one] | 32% | –
3 | O=c1[nH][nH]cc1S(=O)(=O)Cc1ccc(OCCc2coc(-c3ccccc3)n2)cc1 [Example 2, 4-(4-[2-(2-Phenyl-4-oxazolyl)ethoxy]phenylmethylsulfonyl)-1H,2H-prazolin-3-one] | 81% | –
4 | O=c1ccn(S(=O)(=O)c2ccc3ccccc3c2)[nH]1 [Example 4, 2-Naphthylsulfonyl-pyrazolin-3-one] | – | % BG14 (BGO = 100) (dose .1 weight percent in diet (Purina 5008 Chow)): 94%

— patent publication US6617342B1, “Hypoglycemic sulfonyl pyrazolones and pyrazolines” (Eli Lilly and Company, priority 1999, dated 2003)
